Measured values reported in patent publication US3962282A, “Juvenile hormone mimics” (priority 1974, dated 1976).

Key:
housefly larvae = test: topical application to housefly larvae; format: in vivo, Musca domestica
Method: (§1) The compounds were applied in acetone solution at concentrations of 10 percent, 1 percent and 0.5 percent. One microliter of the acetone solution was applied to each test specimen. Ten test specimens were employed for each insect at each concentration and compared to ten acetone controls and ten zero controls. Approximately eight to ten days were required before results could be ascertained.
A number of compounds were tested against housefly larvae by topical application in an acetone solution using the method described above for the primary test against Tenebrio, milkweed bug, wax moth, and Mexican bean bettel. The results with the first compound are reported on a scale of 0 to 3 with 0 indicating a normal adult, 1 indicating an adult with deformed wings, 2 indicating a partially emerged adult, and 3 indicating no evidence of emergence. The results for the other compounds are reported onn a scale of 0 to 2 with 0 indicating a normal adult, 1 indicating a partially emerged adult and 2 indicating no evidence of emergence.

[1] = system: Housefly (Musca domestica); test: housefly rearing diet test, percent adult emergence; format: in vivo
Method: Test compounds were mixed with the rearing diet of houseflys at various levels. The prepared diet was then placed in an 8 oz. drinking cup. Three cups were prepared for each treatment level and three control cups. Housefly eggs (Musca domestica) were placed in each cup and they were maintained at 28°C. for 1 week. Fifty pupae were then removed from each cup and placed in a petri dish. After the control pupae had emerged into adults, the percent emergence in each dish was recorded. The test compounds used were 7,8-epoxy-4-ethyl-8-methyl-1-(3,4-methylenedioxyphenyl)-3-decene, 4,8-dimetyl-1-(3,4-methylenedioxyphenyl)-2,6-nonadiene and 2,6-dichloro-2,6-dimethyl-9-(3,4-methylenedioxyphenyl)nonane.

Mexican bean beetle = test: topical application to Mexican bean beetle, fourth larval stage, maturation inhibition; format: in vivo
Description: as §1
(§2) The insect species used in the test were Tenebrio molitor pupae; milkweed bug, fourth nymphal stage; wax moth, fifth larval stage; and Mexican bean beetle, fourth larval stage. At the completion of the test, each specimen was examined for the degree of juvenile and adult characteristics. The milkweed bug, wax moth, and Mexican bean beetle were assigned a numerical rating of 0 to 3 with 0 indicating no effect and 3 indicating the maximum effect or least adult development. Because of differences in morphology the Tenebrio rating scale was 0 to 4. In all cases a rating of 2 or higher means that the insect is incapable of reproduction. The number of specimens in each rating classification are given. In any test were the total of specimens reported is less than 10, those unreported died in some metamorphic stage. Such deaths indicate control, since the dead insects are not capable of reproducing.

Tenebrio molitor pupae = test: topical application to Tenebrio molitor pupae, maturation inhibition; format: in vivo
Description: as §1, §2

milkweed bug = test: topical application to milkweed bug, fourth nymphal stage, maturation inhibition; format: in vivo; conditions: rating scale 0-3
Description: as §1, §2

wax moth = test: topical application to wax moth, fifth larval stage, maturation inhibition; format: in vivo
Description: as §1, §2

[2] = 10% in acetone, 1 microliter topical, rating scale 0 (no effect) to 3 (maximum)

## CC(C)(Cl)CCCC(C)(Cl)CCCc1ccc2c(c1)OCO2 (stereo not shown) [2,6-dichloro-2,6-dimethyl-9-(3,4-methylenedioxyphenyl)nonane]
Housefly larvae; 0.5%, scale 0-2
  number in rating 0 (normal adult): 2
  number in rating 2 (no evidence of emergence): 8
Housefly larvae; 1%, scale 0-2
  number in rating 0 (normal adult): 1
  number in rating 2 (no evidence of emergence): 9
Housefly larvae; 10%, scale 0-2
  number in rating 2 (no evidence of emergence): 10
[1]; 0.1 ppm in diet
  percent adult emergence, Cup 1: 100%
  percent adult emergence, Cup 2: 100%
  percent adult emergence, Cup 3: 100%
[1]; 1 ppm in diet
  percent adult emergence, Cup 1: 100%
  percent adult emergence, Cup 2: 100%
  percent adult emergence, Cup 3: 100%
[1]; 10 ppm in diet
  percent adult emergence, Cup 1: 100%
  percent adult emergence, Cup 2: 90%
  percent adult emergence, Cup 3: 90%
[1]; 100 ppm
  control: 100%
[1]; 100 ppm in diet
  percent adult emergence, Cup 1: 0%
  percent adult emergence, Cup 2: 0%
  percent adult emergence, Cup 3: 0%
Mexican bean beetle; 0.5%, rating scale 0-3
  number of specimens in rating 0: 8 specimens
  number of specimens in rating 1: 2 specimens
Mexican bean beetle; 1%, rating scale 0-3
  number of specimens in rating 0: 5 specimens
  number of specimens in rating 1: 3 specimens
  number of specimens in rating 2: 2 specimens
Mexican bean beetle; 10%, rating scale 0-3
  number of specimens in rating 1: 1 specimens
  number of specimens in rating 2: 4 specimens
  number of specimens in rating 3: 5 specimens
Tenebrio molitor pupae; 0.5%, rating scale 0-4
  number of specimens in rating 1: 2 specimens
  number of specimens in rating 2: 8 specimens
Tenebrio molitor pupae; 1%, rating scale 0-4
  number of specimens in rating 2: 10 specimens
Tenebrio molitor pupae; 10%, rating scale 0-4
  number of specimens in rating 2: 1 specimens
  number of specimens in rating 3: 9 specimens
Milkweed bug; 0.5%
  number of specimens in rating 3: 8 specimens
Milkweed bug; 1%
  number of specimens in rating 3: 10 specimens
Milkweed bug; 10%
  number of specimens in rating 3: 5 specimens
Wax moth; 0.5%, rating scale 0-3
  number of specimens in rating 0: 10 specimens
Wax moth; 1%, rating scale 0-3
  number of specimens in rating 0: 10 specimens
Wax moth; [2]
  number of specimens in rating 0: 10 specimens

## CC(=CCCc1ccc2c(c1)OCO2)CCC1OC1(C)C (stereo not shown) [9-(3,4-methylenedioxyphenyl)-2,6-dimethyl-2,3-epoxy-6-nonene]
Housefly larvae; 1%, scale 0-2
  number in rating 2 (no evidence of emergence): 10
Housefly larvae; 10%, scale 0-2
  number in rating 2 (no evidence of emergence): 10
Tenebrio molitor pupae; 0.5%, rating scale 0-4
  number of specimens in rating 4: 10 specimens
Tenebrio molitor pupae; 1%, rating scale 0-4
  number of specimens in rating 0: 1 specimens
  number of specimens in rating 4: 9 specimens
Tenebrio molitor pupae; 10%, rating scale 0-4
  number of specimens in rating 4: 10 specimens
Milkweed bug; 0.5%
  number of specimens in rating 1: 2 specimens
  number of specimens in rating 2: 4 specimens
Milkweed bug; 1%
  number of specimens in rating 1: 5 specimens
  number of specimens in rating 3: 2 specimens
Milkweed bug; 10%
  number of specimens in rating 3: 7 specimens

## CC(C)=CCC/C(C)=C\CCc1ccc(Cl)cc1 [cis-9-(4-chlorophenyl)-2,6-dimethyl-2,6-nonadiene]
Housefly larvae; 0.5%, scale 0-2
  number in rating 0 (normal adult): 3
  number in rating 1 (partially emerged adult): 3
  number in rating 2 (no evidence of emergence): 3
Housefly larvae; 1%, scale 0-2
  number in rating 0 (normal adult): 2
  number in rating 1 (partially emerged adult): 2
  number in rating 2 (no evidence of emergence): 4
Housefly larvae; 10%, scale 0-2
  number in rating 1 (partially emerged adult): 2
  number in rating 2 (no evidence of emergence): 6

## CC(C)=CCC/C(C)=C/CCc1ccc(Cl)c(Cl)c1 [trans-2,6-dimethyl-9-(3,4-dichlorophenyl)-2,6-nonadiene]
Housefly larvae; 0.5%, scale 0-3
  number in rating 0 (normal adult): 3
  number in rating 2 (partially emerged adult): 1
  number in rating 3 (no evidence of emergence): 6
Housefly larvae; 1%, scale 0-3
  number in rating 0 (normal adult): 8
  number in rating 3 (no evidence of emergence): 2
Housefly larvae; 10%, scale 0-3
  number in rating 0 (normal adult): 5
  number in rating 3 (no evidence of emergence): 5
Mexican bean beetle; 0.5%, rating scale 0-3
  number of specimens in rating 0: 10 specimens
Mexican bean beetle; 1%, rating scale 0-3
  number of specimens in rating 0: 10 specimens
Mexican bean beetle; [2]
  number of specimens in rating 0: 6 specimens
Mexican bean beetle; 10%, rating scale 0-3
  number of specimens in rating 1: 1 specimens
  number of specimens in rating 2: 1 specimens
  number of specimens in rating 3: 2 specimens
Tenebrio molitor pupae; 0.5%, rating scale 0-4
  number of specimens in rating 0: 10 specimens
Tenebrio molitor pupae; 1%, rating scale 0-4
  number of specimens in rating 0: 10 specimens
Tenebrio molitor pupae; 10% in acetone, 1 microliter topical, rating scale 0 (no effect) to 4 (maximum)
  number of specimens in rating 0: 10 specimens
Milkweed bug; 0.5%
  number of specimens in rating 3: 10 specimens
Milkweed bug; 1%
  number of specimens in rating 3: 10 specimens
Milkweed bug; 10%
  number of specimens in rating 3: 10 specimens
Wax moth; 0.5%, rating scale 0-3
  number of specimens in rating 0: 10 specimens
Wax moth; 1%, rating scale 0-3
  number of specimens in rating 0: 10 specimens
Wax moth; [2]
  number of specimens in rating 0: 10 specimens

## CC(C)=CCC/C(C)=C/CCc1ccc(Cl)cc1 [trans-2,6-dimethyl-9-(4-chlorophenyl)-2,6-nonadiene]
Housefly larvae; 0.5%, scale 0-2
  number in rating 0 (normal adult): 4
  number in rating 2 (no evidence of emergence): 6
Housefly larvae; 1%, scale 0-2
  number in rating 0 (normal adult): 3
  number in rating 1 (partially emerged adult): 3
  number in rating 2 (no evidence of emergence): 4
Housefly larvae; 10%, scale 0-2
  number in rating 0 (normal adult): 3
  number in rating 1 (partially emerged adult): 1
  number in rating 2 (no evidence of emergence): 5
Mexican bean beetle; 0.5%, rating scale 0-3
  number of specimens in rating 3: 10 specimens
Mexican bean beetle; 1%, rating scale 0-3
  number of specimens in rating 3: 10 specimens
Mexican bean beetle; 10%, rating scale 0-3
  number of specimens in rating 3: 10 specimens
Tenebrio molitor pupae; 0.5%, rating scale 0-4
  number of specimens in rating 0: 10 specimens
Tenebrio molitor pupae; 1%, rating scale 0-4
  number of specimens in rating 0: 4 specimens
  number of specimens in rating 1: 3 specimens
  number of specimens in rating 3: 3 specimens
Tenebrio molitor pupae; 10%, rating scale 0-4
  number of specimens in rating 4: 10 specimens
Milkweed bug; 0.5%
  number of specimens in rating 3: 10 specimens
Milkweed bug; 1%
  number of specimens in rating 3: 10 specimens
Milkweed bug; 10%
  number of specimens in rating 3: 10 specimens
Wax moth; 0.5%, rating scale 0-3
  number of specimens in rating 0: 10 specimens
Wax moth; 1%, rating scale 0-3
  number of specimens in rating 0: 9 specimens
  number of specimens in rating 2: 1 specimens
Wax moth; [2]
  number of specimens in rating 0: 6 specimens
Wax moth; 10%, rating scale 0-3
  number of specimens in rating 1: 1 specimens
  number of specimens in rating 2: 3 specimens
